Test results taken from the kinase profiling compilation of Christmann-Franck et al. (2016).
Values joined by “and” are separate entries in the source; they are usually repeats but may differ in a detail not shown here. Equal values may be shown once.

Tests used:
Details in all cases: compound 10.0 µM
AURKB (human) = AURKB (human) (UniProt Q96GD4)
AXL (human) = AXL (human) (UniProt P30530)
CAMK4 (human) = CAMK4 (human) (UniProt Q16566)
CDK2 CCNA2 (human) = CDK2 CCNA2 (human) (UniProt P24941+P20248)
CDK3 CCNE1 (human) = CDK3 CCNE1 (human) (UniProt P24864+Q00526)
CDK5 CDK5R1 p35 (human) = CDK5 CDK5R1 p35 (human) (UniProt Q00535+Q15078)
CDK9 CCNT1 (human) = CDK9 CCNT1 (human) (UniProt O60563+P50750)
CLK1 (human) = CLK1 (human) (UniProt P49759)
CSNK1A1 (human) = CSNK1A1 (human) (UniProt P48729)
CSNK1E (human) = CSNK1E (human) (UniProt P49674)
CSNK2A2 (human) = CSNK2A2 (human) (UniProt P19784)
DAPK1 (human) = DAPK1 (human) (UniProt P53355)
DAPK3 (human) = DAPK3 (human) (UniProt O43293)
DYRK2 (human) = DYRK2 (human) (UniProt Q92630)
FER (human) = FER (human) (UniProt P16591)
HIPK3 (human) = HIPK3 (human) (UniProt Q9H422)
JAK1 JH1 JH2 (human) = JAK1 JH1 JH2 (human) (UniProt P23458)
MAP3K2 (human) = MAP3K2 (human) (UniProt Q9Y2U5)
MAP3K3 (human) = MAP3K3 (human) (UniProt Q99759)
MAP3K9 (human) = MAP3K9 (human) (UniProt P80192)
MLTK (human) = MLTK (human) (UniProt Q9NYL2)
MST4 (human) = MST4 (human) (UniProt Q9P289)
PAK4 (human) = PAK4 (human) (UniProt O96013)
PHKG2 (human) = PHKG2 (human) (UniProt P15735)
PRKCZ (human) = PRKCZ (human) (UniProt Q05513)
PRKG1 (human) = PRKG1 (human) (UniProt Q13976)
RPS6KA4 KD1 KD2 (human) = RPS6KA4 KD1 KD2 (human) (UniProt O75676)
RPS6KA5 KD1 KD2 (human) = RPS6KA5 KD1 KD2 (human) (UniProt O75582)
SGK3 (human) = SGK3 (human) (UniProt Q96BR1)
SRPK1 (human) = SRPK1 (human) (UniProt Q96SB4)
STK38 (human) = STK38 (human) (UniProt Q15208)
TAOK1 (human) = TAOK1 (human) (UniProt Q7L7X3)
TAOK2 (human) = TAOK2 (human) (UniProt Q9UL54)

Sequence of PRKG1 (human) (Q13976 whole entry, looked up): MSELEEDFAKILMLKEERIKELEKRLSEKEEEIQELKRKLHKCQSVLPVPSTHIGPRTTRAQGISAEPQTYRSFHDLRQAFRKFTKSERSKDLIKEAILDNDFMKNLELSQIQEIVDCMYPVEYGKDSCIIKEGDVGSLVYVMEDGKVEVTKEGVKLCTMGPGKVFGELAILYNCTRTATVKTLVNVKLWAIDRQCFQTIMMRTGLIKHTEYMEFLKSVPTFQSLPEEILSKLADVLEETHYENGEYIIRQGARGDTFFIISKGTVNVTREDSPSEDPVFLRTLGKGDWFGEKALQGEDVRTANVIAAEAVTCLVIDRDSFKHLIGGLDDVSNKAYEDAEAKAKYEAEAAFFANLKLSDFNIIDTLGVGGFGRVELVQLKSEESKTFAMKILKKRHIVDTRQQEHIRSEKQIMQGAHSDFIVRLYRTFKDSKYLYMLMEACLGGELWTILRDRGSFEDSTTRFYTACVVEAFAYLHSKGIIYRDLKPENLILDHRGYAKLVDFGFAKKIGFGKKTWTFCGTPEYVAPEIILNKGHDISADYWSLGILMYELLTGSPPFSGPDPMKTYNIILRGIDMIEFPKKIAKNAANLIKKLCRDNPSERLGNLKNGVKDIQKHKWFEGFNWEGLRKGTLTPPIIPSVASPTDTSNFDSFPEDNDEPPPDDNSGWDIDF
Sequence of MAP3K3 (human) (Q99759 whole entry, looked up): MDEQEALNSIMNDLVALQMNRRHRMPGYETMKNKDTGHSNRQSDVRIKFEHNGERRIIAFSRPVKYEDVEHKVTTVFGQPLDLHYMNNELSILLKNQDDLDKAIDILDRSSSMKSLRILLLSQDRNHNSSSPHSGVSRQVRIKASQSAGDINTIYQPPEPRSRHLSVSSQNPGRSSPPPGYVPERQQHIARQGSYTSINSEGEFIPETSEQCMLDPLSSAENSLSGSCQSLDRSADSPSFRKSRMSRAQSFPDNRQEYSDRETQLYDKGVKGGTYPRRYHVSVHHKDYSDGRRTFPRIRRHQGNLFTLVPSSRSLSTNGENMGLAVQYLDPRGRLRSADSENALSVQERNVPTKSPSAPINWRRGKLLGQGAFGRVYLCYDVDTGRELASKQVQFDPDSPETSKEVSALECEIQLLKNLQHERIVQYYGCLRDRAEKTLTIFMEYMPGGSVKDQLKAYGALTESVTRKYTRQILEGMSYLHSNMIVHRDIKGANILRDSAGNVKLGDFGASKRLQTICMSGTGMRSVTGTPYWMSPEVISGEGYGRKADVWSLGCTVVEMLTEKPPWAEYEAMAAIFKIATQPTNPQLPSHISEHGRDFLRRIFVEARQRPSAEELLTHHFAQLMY
Sequence of TAOK1 (human) (Q7L7X3 whole entry, looked up): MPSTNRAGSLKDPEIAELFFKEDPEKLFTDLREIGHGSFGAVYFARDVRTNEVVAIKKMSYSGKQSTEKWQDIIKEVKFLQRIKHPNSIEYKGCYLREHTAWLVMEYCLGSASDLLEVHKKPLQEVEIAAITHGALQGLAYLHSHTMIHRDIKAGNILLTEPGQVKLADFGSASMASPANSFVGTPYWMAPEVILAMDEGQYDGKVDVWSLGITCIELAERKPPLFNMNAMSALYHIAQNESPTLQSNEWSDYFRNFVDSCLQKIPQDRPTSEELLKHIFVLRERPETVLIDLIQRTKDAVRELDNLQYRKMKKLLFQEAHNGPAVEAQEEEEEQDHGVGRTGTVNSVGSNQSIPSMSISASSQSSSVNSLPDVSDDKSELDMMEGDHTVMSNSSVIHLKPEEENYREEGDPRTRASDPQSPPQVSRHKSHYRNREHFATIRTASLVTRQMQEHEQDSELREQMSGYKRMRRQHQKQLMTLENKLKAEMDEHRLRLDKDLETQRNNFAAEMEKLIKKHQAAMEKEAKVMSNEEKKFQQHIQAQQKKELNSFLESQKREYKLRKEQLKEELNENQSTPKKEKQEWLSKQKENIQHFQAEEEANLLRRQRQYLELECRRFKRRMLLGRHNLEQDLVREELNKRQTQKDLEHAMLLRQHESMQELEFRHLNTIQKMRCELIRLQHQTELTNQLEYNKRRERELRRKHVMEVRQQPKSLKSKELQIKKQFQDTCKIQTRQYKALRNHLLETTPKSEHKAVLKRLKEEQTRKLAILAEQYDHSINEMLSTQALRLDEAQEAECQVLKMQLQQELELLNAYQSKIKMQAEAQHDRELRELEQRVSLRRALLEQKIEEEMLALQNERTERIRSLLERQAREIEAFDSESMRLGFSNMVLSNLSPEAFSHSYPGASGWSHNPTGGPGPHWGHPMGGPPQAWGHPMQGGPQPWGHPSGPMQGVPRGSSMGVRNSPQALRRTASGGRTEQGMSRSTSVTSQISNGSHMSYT
Sequence of CLK1 (human) (P49759 whole entry, looked up): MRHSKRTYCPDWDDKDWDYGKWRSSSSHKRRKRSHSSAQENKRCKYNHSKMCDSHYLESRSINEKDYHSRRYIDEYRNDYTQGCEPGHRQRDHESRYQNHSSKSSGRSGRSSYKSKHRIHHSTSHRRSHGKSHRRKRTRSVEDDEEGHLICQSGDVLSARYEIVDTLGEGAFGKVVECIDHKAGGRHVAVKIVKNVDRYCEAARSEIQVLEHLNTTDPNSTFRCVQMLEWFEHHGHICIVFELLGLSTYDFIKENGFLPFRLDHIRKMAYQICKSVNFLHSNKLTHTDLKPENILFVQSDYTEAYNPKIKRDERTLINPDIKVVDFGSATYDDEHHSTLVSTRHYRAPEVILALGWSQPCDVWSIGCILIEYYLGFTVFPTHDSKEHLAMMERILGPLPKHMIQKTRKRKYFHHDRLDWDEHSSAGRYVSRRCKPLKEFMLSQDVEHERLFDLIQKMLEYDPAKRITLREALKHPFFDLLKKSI
Sequence of SGK3 (human) (Q96BR1 whole entry, looked up): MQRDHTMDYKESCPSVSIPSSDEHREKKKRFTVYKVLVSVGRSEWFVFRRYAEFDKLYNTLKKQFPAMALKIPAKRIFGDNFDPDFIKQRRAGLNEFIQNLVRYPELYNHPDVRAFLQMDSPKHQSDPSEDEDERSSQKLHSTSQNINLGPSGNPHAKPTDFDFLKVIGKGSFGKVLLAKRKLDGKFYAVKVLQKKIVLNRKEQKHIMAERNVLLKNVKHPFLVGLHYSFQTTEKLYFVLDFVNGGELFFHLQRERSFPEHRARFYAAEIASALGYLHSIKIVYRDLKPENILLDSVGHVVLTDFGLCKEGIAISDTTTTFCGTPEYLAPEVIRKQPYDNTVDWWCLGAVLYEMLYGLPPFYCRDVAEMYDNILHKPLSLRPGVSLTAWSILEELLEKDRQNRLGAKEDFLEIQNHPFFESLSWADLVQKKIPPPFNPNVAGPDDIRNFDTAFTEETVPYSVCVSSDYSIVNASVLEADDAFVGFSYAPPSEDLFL
Sequence of CSNK1A1 (human) (P48729 whole entry, looked up): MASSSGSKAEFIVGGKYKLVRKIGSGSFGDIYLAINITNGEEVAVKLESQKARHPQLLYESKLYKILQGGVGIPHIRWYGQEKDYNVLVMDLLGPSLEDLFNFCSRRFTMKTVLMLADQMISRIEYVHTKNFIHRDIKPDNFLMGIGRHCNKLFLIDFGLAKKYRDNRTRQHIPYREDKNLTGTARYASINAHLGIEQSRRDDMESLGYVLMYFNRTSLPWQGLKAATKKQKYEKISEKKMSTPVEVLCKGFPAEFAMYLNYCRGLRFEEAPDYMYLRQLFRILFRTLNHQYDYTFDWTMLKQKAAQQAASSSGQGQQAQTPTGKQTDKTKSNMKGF
Sequence of DAPK1 (human) (P53355 whole entry, looked up): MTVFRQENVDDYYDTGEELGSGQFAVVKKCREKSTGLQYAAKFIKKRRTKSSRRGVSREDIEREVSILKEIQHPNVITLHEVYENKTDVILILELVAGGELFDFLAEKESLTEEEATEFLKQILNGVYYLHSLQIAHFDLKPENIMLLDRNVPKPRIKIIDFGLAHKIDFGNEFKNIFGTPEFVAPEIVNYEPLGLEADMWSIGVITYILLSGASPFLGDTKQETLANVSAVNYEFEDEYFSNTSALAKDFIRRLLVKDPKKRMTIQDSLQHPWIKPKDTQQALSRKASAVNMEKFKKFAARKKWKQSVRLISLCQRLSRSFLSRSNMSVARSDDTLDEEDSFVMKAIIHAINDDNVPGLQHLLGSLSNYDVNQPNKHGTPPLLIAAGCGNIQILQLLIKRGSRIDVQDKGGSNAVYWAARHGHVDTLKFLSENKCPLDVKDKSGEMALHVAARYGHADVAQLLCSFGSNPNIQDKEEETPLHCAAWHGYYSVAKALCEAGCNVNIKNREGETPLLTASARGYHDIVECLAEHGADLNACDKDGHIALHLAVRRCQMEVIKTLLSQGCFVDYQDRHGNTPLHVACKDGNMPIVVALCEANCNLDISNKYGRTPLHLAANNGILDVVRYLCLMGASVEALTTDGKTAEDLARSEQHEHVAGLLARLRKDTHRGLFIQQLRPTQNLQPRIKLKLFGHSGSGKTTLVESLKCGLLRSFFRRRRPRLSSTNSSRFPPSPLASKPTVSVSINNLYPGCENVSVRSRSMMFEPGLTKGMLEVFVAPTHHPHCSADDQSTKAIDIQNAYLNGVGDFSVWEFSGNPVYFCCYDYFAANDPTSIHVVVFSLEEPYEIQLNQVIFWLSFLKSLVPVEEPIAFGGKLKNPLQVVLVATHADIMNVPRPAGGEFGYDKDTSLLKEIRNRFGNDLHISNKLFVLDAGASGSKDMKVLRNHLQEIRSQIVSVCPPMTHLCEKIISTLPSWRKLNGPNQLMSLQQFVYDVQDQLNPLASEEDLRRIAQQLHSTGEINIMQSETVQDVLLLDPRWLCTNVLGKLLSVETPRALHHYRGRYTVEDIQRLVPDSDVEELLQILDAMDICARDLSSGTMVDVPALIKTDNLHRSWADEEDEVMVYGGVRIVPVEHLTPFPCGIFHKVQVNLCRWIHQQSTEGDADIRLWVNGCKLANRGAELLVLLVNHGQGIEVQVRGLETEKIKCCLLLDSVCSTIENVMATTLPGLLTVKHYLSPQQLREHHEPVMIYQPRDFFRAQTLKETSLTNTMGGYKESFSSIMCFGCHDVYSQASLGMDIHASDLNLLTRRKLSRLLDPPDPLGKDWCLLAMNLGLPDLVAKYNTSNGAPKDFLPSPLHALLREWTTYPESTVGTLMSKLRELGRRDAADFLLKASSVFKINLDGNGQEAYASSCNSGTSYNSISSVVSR

## CC[C@H](C)n1cc(C)c2c(C(=O)NCc3c(C)cc(C)[nH]c3=O)cc(-c3ccc(N4CCNCC4)nc3)cc21
AURKB (human)
  residual activity: 104%
AXL (human)
  residual activity: 103%
CAMK4 (human)
  residual activity: 87.5%
CDK2 CCNA2 (human)
  residual activity: 97%
CDK3 CCNE1 (human)
  residual activity: 105%
CDK5 CDK5R1 p35 (human)
  residual activity: 103%
CDK9 CCNT1 (human)
  residual activity: 98%
CLK1 (human)
  residual activity: 99%
CSNK1A1 (human)
  residual activity: 97%
CSNK1E (human)
  residual activity: 94.5%
CSNK2A2 (human)
  residual activity: 76.5%
DAPK1 (human)
  residual activity: 96.5%
DAPK3 (human)
  residual activity: 106%
DYRK2 (human)
  residual activity: 204%
FER (human)
  residual activity: 85.5%
HIPK3 (human)
  residual activity: 100%
JAK1 JH1 JH2 (human)
  residual activity: 97.5%
MAP3K2 (human)
  residual activity: 100%
MAP3K3 (human)
  residual activity: 107%
MAP3K9 (human)
  residual activity: 92.5%
MLTK (human)
  residual activity: 96%
MST4 (human)
  residual activity: 98%
PAK4 (human)
  residual activity: 97.5%
PHKG2 (human)
  residual activity: 93.5%
PRKCZ (human)
  residual activity: 99.5%
PRKG1 (human)
  residual activity: 95% and 90.5%
RPS6KA4 KD1 KD2 (human)
  residual activity: 90.5%
RPS6KA5 KD1 KD2 (human)
  residual activity: 108%
SGK3 (human)
  residual activity: 105%
SRPK1 (human)
  residual activity: 108%
STK38 (human)
  residual activity: 97%
TAOK1 (human)
  residual activity: 91.5%
TAOK2 (human)
  residual activity: 103%
